Holding throughout (assay type): cell-based
Holding throughout (conditions): Table 7; cAMP formation

In experiment [1] the target is T1, human glucagon receptor (hGLUC R) (Homo sapiens, UniProt P47871).
T1 construct: expressed in transfected cells
The experiment is described as follows: cAMP response of HEK-293 cells stably expressing human glucagon receptor (HTRF). An outline of the steps: (§1)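 Cells grown overnight in DMEM/10% FBS, detached with accutase, resuspended in HBSS with 20 mM HEPES, 0.1% BSA and 2 mM IBMX at 400000 cells/ml. Test compound added and incubated 30 minutes at room temperature; cellular cAMP then measured by HTRF.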
On the technique in general: Time-resolved FRET reads energy transfer from a long-lived donor to a nearby acceptor.

In experiment [2] the target is T2, human GIP receptor (hGIP R) (Homo sapiens, UniProt P48546).
T2 construct: expressed in transfected cells
T2 sequence (P48546 22-466): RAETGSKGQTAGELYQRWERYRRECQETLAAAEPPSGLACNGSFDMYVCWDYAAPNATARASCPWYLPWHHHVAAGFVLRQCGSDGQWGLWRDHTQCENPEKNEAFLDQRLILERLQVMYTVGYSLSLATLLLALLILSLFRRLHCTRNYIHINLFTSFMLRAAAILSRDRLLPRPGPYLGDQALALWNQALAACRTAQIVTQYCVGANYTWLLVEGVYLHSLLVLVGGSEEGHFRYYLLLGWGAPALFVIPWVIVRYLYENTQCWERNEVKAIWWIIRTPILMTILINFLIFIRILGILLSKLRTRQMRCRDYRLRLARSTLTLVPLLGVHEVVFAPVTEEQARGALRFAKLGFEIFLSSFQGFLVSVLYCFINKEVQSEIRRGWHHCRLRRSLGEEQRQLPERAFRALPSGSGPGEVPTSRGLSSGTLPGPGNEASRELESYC
The experiment is described as follows: cAMP response of HEK-293 cells stably expressing human GIP receptor (HTRF). The method, boiled down: as §1

Experiment [3] has as its target T3, human GLP-1 receptor (hGLP-1 R) (Homo sapiens, UniProt P43220).
T3 construct: expressed in transfected cells
The experiment in a line: cAMP response of HEK-293 cells stably expressing human GLP-1 receptor (HTRF). An outline of the steps:
as §1

*1 amine or outer side, *2 acyl side, *3 side chain or, on linkers, in order; H or OH if unused. Where a SMILES comes first, the peptide text is derived from it. Side-chain parts run from the residue outwards. [ ]: non-standard residue; d: D form. The star is where a group is joined. γGlu = O=C(O)[C@H](CCC(=O)[*:2])N[*:1]; Stearoyl = CCCCCCCCCCCCCCCCCC(=O)*; Palmitoyl = CCCCCCCCCCCCCCCC(=O)*; Aib = CC(C)(N)C(=O)O

T3 sequence (P43220 24-463): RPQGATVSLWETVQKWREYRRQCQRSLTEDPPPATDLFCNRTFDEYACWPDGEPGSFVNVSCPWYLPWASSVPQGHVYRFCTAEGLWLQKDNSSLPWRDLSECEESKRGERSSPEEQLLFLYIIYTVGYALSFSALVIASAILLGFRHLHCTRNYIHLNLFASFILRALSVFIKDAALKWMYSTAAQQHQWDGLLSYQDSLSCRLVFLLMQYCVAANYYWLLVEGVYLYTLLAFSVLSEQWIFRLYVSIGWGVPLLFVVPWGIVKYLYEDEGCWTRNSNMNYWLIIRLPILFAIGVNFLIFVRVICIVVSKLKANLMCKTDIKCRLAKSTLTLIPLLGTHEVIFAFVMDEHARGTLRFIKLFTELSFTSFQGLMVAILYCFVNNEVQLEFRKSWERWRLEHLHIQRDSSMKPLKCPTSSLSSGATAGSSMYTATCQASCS
T1 sequence (P47871 26-477): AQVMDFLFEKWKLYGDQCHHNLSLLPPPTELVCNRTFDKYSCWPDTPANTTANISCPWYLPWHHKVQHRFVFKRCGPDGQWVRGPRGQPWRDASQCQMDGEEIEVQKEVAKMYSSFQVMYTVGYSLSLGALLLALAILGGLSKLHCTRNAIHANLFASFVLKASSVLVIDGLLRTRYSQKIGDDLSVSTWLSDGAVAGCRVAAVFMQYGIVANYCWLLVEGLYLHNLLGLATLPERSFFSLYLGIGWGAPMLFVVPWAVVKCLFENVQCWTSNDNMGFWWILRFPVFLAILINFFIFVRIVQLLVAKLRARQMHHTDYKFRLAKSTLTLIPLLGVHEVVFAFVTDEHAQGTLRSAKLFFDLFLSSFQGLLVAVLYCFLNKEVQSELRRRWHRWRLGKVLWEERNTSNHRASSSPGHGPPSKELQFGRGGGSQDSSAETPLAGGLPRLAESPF

Usually EC50 stands for the concentration giving half of the maximal effect. Higher therefore signals a less potent agent. On to `CCCCCCCCCCCCCCCC(=O)N[C@@H](CCC(=O)NCCCC[C@H](NC(=O)[C@H](CCC(N)=O)NC(=O)[C@H](CCCCN)NC(=O)[C@H](CO)NC(=O)[C@H](CC(C)C)NC(=O)[C@H](CC(=O)O)NC(=O)[C@H](CO)NC(=O)[C@@H](NC(=O)[C@H](Cc1ccccc1)NC(=O)[C@@H](NC(=O)CNC(=O)[C@H](Cc1c[nH]cn1)NC(=O)C(C)(C)NC(=O)[C@@H](N)Cc1ccc(O)cc1)[C@@H](C)O)[C@@H](C)O)C(=O)N[C@@H](CCC(=O)O)C(=O)N[C@@H](CCCCN)C(=O)N[C@@H](CCCNC(=N)N)C(=O)N[C@@H](C)C(=O)N[C@@H](C)C(=O)NC(C)(C)C(=O)N[C@@H](CCC(=O)O)C(=O)N[C@@H](Cc1ccccc1)C(=O)N[C@H](C(=O)N[C@@H](CCC(=O)O)C(=O)N[C@@H](Cc1c[nH]c2ccccc12)C(=O)N[C@@H](CC(C)C)C(=O)N[C@@H](CCCCN)C(=O)N[C@@H](CC(N)=O)C(=O)N[C@H](C(=O)NCC(=O)N1CCC[C@H]1C(=O)N[C@@H](CO)C(=O)N[C@@H](CO)C(=O)NCC(=O)N[C@@H](C)C(=O)N1CCC[C@H]1C(=O)N1CCC[C@H]1C(=O)N1CCC[C@H]1C(=O)N[C@@H](CO)C(N)=O)[C@@H](C)O)[C@@H](C)CC)C(=O)O` [SEQ ID NO: 28, Y-Aib-H-G-T-F-T-S-D-L-S-K-Q-K(yE-x53)-E-K-R-A-A-Aib-E-F-I-E-W-L-K-N-T-G-P-S-S-G-A-P-P-P-S-NH2] (H-Y[Aib]HGTFTSDLSKQK([γGlu-Palmitoyl])EKRAA[Aib]EFIEWLKNTGPSSGAPPPS-NH2), for which the EC50 in experiment [1] was 0.0048 nM; in experiment [2], 0.0368 nM; in experiment [3], 0.0583 nM.
The matching figures for `CCCCCCCCCCCCCCCCCC(=O)N[C@@H](CCC(=O)NCCCC[C@H](NC(=O)[C@H](CCC(N)=O)NC(=O)[C@@H](NC(=O)[C@H](CO)NC(=O)[C@H](CC(C)C)NC(=O)[C@H](CC(=O)O)NC(=O)[C@H](CO)NC(=O)[C@@H](NC(=O)[C@H](Cc1ccccc1)NC(=O)[C@@H](NC(=O)CNC(=O)[C@H](CCC(=O)O)NC(=O)C(C)(C)NC(=O)[C@@H](N)Cc1ccc(O)cc1)[C@@H](C)O)[C@@H](C)O)[C@@H](C)CC)C(=O)N[C@@H](CCC(=O)O)C(=O)N[C@@H](CO)C(=O)N[C@@H](CCCCN)C(=O)N[C@@H](C)C(=O)N[C@@H](C)C(=O)NC(C)(C)C(=O)N[C@@H](CCC(=O)O)C(=O)N[C@@H](Cc1ccccc1)C(=O)N[C@H](C(=O)N[C@@H](CCC(=O)O)C(=O)N[C@@H](Cc1c[nH]c2ccccc12)C(=O)N[C@@H](CC(C)C)C(=O)N[C@@H](CCCCN)C(=O)N[C@@H](C)C(=O)NCC(=O)NCC(=O)N1CCC[C@H]1C(=O)N[C@@H](CO)C(=O)N[C@@H](CO)C(=O)NCC(=O)N[C@@H](C)C(=O)N1CCC[C@H]1C(=O)N1CCC[C@H]1C(=O)N1CCC[C@H]1C(=O)N[C@@H](CO)C(N)=O)[C@@H](C)CC)C(=O)O` [SEQ ID NO: 29, Y-Aib-E-G-T-F-T-S-D-L-S-I-Q-K(yE-x70)-E-S-K-A-A-Aib-E-F-I-E-W-L-K-A-G-G-P-S-S-G-A-P-P-P-S-NH2] (H-Y[Aib]EGTFTSDLSIQK([γGlu-Stearoyl])ESKAA[Aib]EFIEWLKAGGPSSGAPPPS-NH2): 15 nM, 0.013 nM and 0.0072 nM.
For `CCCCCCCCCCCCCCCC(=O)N[C@@H](CCC(=O)NCCCC[C@H](NC(=O)[C@H](CCC(N)=O)NC(=O)[C@H](CCCCN)NC(=O)[C@H](CO)NC(=O)[C@H](CC(C)C)NC(=O)[C@H](CC(=O)O)NC(=O)[C@H](CO)NC(=O)[C@@H](NC(=O)[C@H](Cc1ccccc1)NC(=O)[C@@H](NC(=O)CNC(=O)[C@H](CCC(=O)O)NC(=O)C(C)(C)NC(=O)[C@@H](N)Cc1ccc(O)cc1)[C@@H](C)O)[C@@H](C)O)C(=O)N[C@@H](CC(=O)O)C(=O)N[C@@H](CCCCN)C(=O)N[C@@H](CCCNC(=N)N)C(=O)N[C@@H](C)C(=O)N[C@@H](C)C(=O)N[C@@H](CCC(N)=O)C(=O)N[C@@H](CC(=O)O)C(=O)N[C@@H](Cc1ccccc1)C(=O)N[C@H](C(=O)N[C@@H](CCC(=O)O)C(=O)N[C@@H](Cc1c[nH]c2ccccc12)C(=O)N[C@@H](CC(C)C)C(=O)N[C@@H](CCCCN)C(=O)N[C@@H](CC(N)=O)C(=O)NCC(=O)NCC(=O)N1CCC[C@H]1C(=O)N[C@@H](CO)C(=O)N[C@@H](CO)C(=O)NCC(=O)N[C@@H](C)C(=O)N1CCC[C@H]1C(=O)N1CCC[C@H]1C(=O)N1CCC[C@H]1C(=O)N[C@@H](CO)C(N)=O)[C@@H](C)CC)C(=O)O` [SEQ ID NO: 30, Y-Aib-E-G-T-F-T-S-D-L-S-K-Q-K(yE-x53)-DKRAAQDFIEWLKNGGPSSGAPPPS-NH2] (H-Y[Aib]EGTFTSDLSKQK([γGlu-Palmitoyl])DKRAAQDFIEWLKNGGPSSGAPPPS-NH2), the EC50 in experiment [1] is 1.45 nM; in experiment [2], 0.0163 nM; in experiment [3], 0.005 nM.
As to `CCCCCCCCCCCCCCCCCC(=O)N[C@@H](CCC(=O)NCCCC[C@H](NC(=O)[C@H](CCC(N)=O)NC(=O)[C@@H](NC(=O)[C@H](CO)NC(=O)[C@H](CC(C)C)NC(=O)[C@H](CC(=O)O)NC(=O)[C@H](CO)NC(=O)[C@@H](NC(=O)[C@H](Cc1ccccc1)NC(=O)[C@@H](NC(=O)CNC(=O)[C@H](CCC(N)=O)NC(=O)C(C)(C)NC(=O)[C@@H](N)Cc1ccc(O)cc1)[C@@H](C)O)[C@@H](C)O)[C@@H](C)CC)C(=O)N[C@@H](CC(=O)O)C(=O)N[C@@H](CCC(=O)O)C(=O)N[C@@H](CCC(N)=O)C(=O)N[C@@H](CCCNC(=N)N)C(=O)N[C@@H](C)C(=O)N[C@@H](CCCCN)C(=O)N[C@@H](CCC(=O)O)C(=O)N[C@@H](Cc1ccccc1)C(=O)N[C@H](C(=O)N[C@@H](CCC(=O)O)C(=O)N[C@@H](Cc1c[nH]c2ccccc12)C(=O)N[C@@H](CC(C)C)C(=O)N[C@@H](CCCCN)C(=O)N[C@@H](C)C(=O)NCC(=O)NCC(=O)N1CCC[C@H]1C(=O)N[C@@H](CO)C(=O)N[C@@H](CO)C(=O)NCC(=O)N[C@@H](C)C(=O)N1CCC[C@H]1C(=O)N1CCC[C@H]1C(=O)N1CCC[C@H]1C(=O)N[C@@H](CO)C(N)=O)[C@@H](C)CC)C(=O)O` [SEQ ID NO: 31, Y-Aib-Q-G-T-F-T-S-D-L-S-I-Q-K(yE-x70)-DEQRAKEFIEWLKAGGPSSGAPPPS-NH2], the EC50 in experiment [1] turned out to be 0.0041 nM; in experiment [2] it was 0.0131 nM; in experiment [3], 0.0148 nM.
Consider `CCCCCCCCCCCCCCCCCC(=O)N[C@@H](CCC(=O)NCCCC[C@H](NC(=O)[C@H](CCC(N)=O)NC(=O)[C@@H](NC(=O)[C@H](CO)NC(=O)[C@H](CC(C)C)NC(=O)[C@H](CC(=O)O)NC(=O)[C@H](CO)NC(=O)[C@@H](NC(=O)[C@H](Cc1ccccc1)NC(=O)[C@@H](NC(=O)CNC(=O)[C@H](Cc1c[nH]cn1)NC(=O)C(C)(C)NC(=O)[C@@H](N)Cc1ccc(O)cc1)[C@@H](C)O)[C@@H](C)O)[C@@H](C)CC)C(=O)N[C@@H](CCC(=O)O)C(=O)N[C@@H](CCCCN)C(=O)N[C@@H](CCCNC(=N)N)C(=O)N[C@@H](C)C(=O)N[C@@H](C)C(=O)N[C@@H](Cc1ccccc1)C(=O)N[C@@H](CCC(=O)O)C(=O)N[C@@H](Cc1ccccc1)C(=O)N[C@H](C(=O)N[C@@H](CCC(=O)O)C(=O)N[C@@H](Cc1c[nH]c2ccccc12)C(=O)N[C@@H](CC(C)C)C(=O)N[C@@H](CCCCN)C(=O)N[C@@H](CC(N)=O)C(=O)N[C@H](C(=O)NCC(=O)N1CCC[C@H]1C(=O)N[C@@H](CO)C(=O)N[C@@H](CO)C(=O)NCC(=O)N[C@@H](C)C(=O)N1CCC[C@H]1C(=O)N1CCC[C@H]1C(=O)N1CCC[C@H]1C(=O)N[C@@H](CO)C(N)=O)[C@@H](C)O)[C@@H](C)CC)C(=O)O` [SEQ ID NO: 32, Y-Aib-H-G-T-F-T-S-D-L-S-I-Q-K(yE-x70)-EKRAAFEFIEWLKNTGPSSGAPPPS-NH2] (H-Y[Aib]HGTFTSDLSIQK([γGlu-Stearoyl])EKRAAFEFIEWLKNTGPSSGAPPPS-NH2), for which the results for the EC50 in experiment [1], in experiment [2] and in experiment [3] were 0.0192 nM, 0.0335 nM and 0.0417 nM, respectively.
For the molecule `CCCCCCCCCCCCCCCC(=O)N[C@@H](CCC(=O)NCCCC[C@H](NC(=O)[C@H](CCC(N)=O)NC(=O)[C@@H](NC(=O)[C@H](CO)NC(=O)[C@H](CC(C)C)NC(=O)[C@H](CC(=O)O)NC(=O)[C@H](CO)NC(=O)[C@@H](NC(=O)[C@H](Cc1ccccc1)NC(=O)[C@@H](NC(=O)CNC(=O)[C@H](CCC(N)=O)NC(=O)C(C)(C)NC(=O)[C@@H](N)Cc1ccc(O)cc1)[C@@H](C)O)[C@@H](C)O)[C@@H](C)CC)C(=O)N[C@@H](CCC(=O)O)C(=O)N[C@@H](CCCCN)C(=O)N[C@@H](CCCNC(=N)N)C(=O)N[C@@H](C)C(=O)N[C@@H](C)C(=O)N[C@@H](CC(C)C)C(=O)N[C@@H](CCC(=O)O)C(=O)N[C@@H](Cc1ccccc1)C(=O)N[C@H](C(=O)N[C@@H](CCC(=O)O)C(=O)N[C@@H](Cc1c[nH]c2ccccc12)C(=O)N[C@@H](CC(C)C)C(=O)N[C@@H](CCCCN)C(=O)N[C@@H](CC(N)=O)C(=O)N[C@H](C(=O)NCC(=O)N1CCC[C@H]1C(=O)N[C@@H](CO)C(=O)N[C@@H](CO)C(=O)NCC(=O)N[C@@H](C)C(=O)N1CCC[C@H]1C(=O)N1CCC[C@H]1C(=O)N1CCC[C@H]1C(=O)N[C@@H](CO)C(N)=O)[C@@H](C)O)[C@@H](C)CC)C(=O)O` [SEQ ID NO: 33, Y-Aib-Q-G-T-F-T-S-D-L-S-I-Q-K(yE-x53)-EKRAALEFIEWLKNTGPSSGAPPPS-NH2] (H-Y[Aib]QGTFTSDLSIQK([γGlu-Palmitoyl])EKRAALEFIEWLKNTGPSSGAPPPS-NH2), the EC50 in experiment [1] was found to be 0.109 nM; in experiment [2] it was 0.0882 nM; in experiment [3], 0.0081 nM.
